The values that follow come from patent US7795278B2 (sanofi-aventis Deutschland GmbH, priority 2004, dated 2010).

Sequence of recombinantly expressed human PARP-1 enzyme (P09874 whole entry): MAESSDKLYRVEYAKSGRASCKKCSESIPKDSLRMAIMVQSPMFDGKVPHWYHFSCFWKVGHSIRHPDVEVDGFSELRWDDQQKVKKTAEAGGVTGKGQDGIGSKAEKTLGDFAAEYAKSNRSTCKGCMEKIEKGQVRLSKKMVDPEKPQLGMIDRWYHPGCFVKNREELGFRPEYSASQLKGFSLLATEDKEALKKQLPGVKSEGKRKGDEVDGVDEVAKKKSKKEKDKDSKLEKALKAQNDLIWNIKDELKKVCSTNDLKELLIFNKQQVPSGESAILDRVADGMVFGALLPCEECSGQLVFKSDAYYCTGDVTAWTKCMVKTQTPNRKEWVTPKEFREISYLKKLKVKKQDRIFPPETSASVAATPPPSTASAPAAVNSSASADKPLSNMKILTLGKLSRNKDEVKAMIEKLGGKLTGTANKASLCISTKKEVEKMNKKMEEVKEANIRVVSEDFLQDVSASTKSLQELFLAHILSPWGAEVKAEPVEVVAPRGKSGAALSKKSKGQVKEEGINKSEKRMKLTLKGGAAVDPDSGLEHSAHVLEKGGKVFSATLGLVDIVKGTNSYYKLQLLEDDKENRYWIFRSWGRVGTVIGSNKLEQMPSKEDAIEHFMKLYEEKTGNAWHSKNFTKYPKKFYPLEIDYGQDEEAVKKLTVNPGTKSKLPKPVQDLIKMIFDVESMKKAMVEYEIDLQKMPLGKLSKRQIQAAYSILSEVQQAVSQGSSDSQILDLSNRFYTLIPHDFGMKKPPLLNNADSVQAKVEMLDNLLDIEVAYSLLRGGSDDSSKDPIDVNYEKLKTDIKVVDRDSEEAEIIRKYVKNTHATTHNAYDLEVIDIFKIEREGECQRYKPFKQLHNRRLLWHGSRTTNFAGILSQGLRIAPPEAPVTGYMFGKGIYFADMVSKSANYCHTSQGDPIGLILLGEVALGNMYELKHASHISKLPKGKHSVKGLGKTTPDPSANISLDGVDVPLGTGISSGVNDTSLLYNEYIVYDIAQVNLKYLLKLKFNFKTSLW

This assay addresses recombinantly expressed human PARP-1 enzyme (Homo sapiens, UniProt P09874). Kind of assay: PARP enzyme assay (half-maximum inhibitor concentration). Format: biochemical. The note with it: DNA-activated PARP-1, 200 μM NAD, tritium-labeled NAD incorporation, room temperature, 1 hour, pH 8.0. How it is done:
Pharmacological Investigations PARP Enzyme Assay
The half-maximum inhibitor concentration is determined by incubating the substances to be tested with the DNA-activated, recombinantly expressed and purified PARP-1 enzyme. Specifically, various concentrations of the test substance are incubated in 50 μl of reaction solution, which contains 50 mM Tris, 5 mM MgCl2, 1 mM DTT, 200 μM NAD, 0.1 mCi/ml tritium-labeled NAD, 0.1 mg/ml DNA, 0.1 mg/ml histones, 2 μg/ml recombinantly expressed human PARP-1 enzyme, pH=8.0, at room temperature for 1 hour. The reaction is stopped by adding 150 μl of 20% trichloroacetic acid, and the radiolabeled protein constituents are precipitated. After incubation on ice for 10 minutes, the labeled, insoluble constituents are separated off through a glass fiber filter and, after washing with 20% trichloroacetic acid three times, the radioactivity incorporated by the PARP-1 enzyme is measured by radioluminescence.
IC-50 values were determined in this way for the following compounds: […]
As to `COc1cccc(CNC(=O)c2cncc(-c3c[nH]c(=O)c4c3CCCC4)c2)c1` [Example 45, N-(3-methoxybenzyl)-5-(1-oxo-1,2,5,6,7,8-hexahydroisoquinolin-4-yl)nicotinamide], the IC50 was 1700 nM. With `COc1ccccc1CNC(=O)c1cncc(-c2c[nH]c(=O)c3c2CCCC3)c1` [Example 46, N-(2-methoxybenzyl)-5-(1-oxo-1,2,5,6,7,8-hexahydroisoquinolin-4-yl)nicotinamide], the IC50 is 3130 nM. As for `COc1cccc(CNC(=O)c2cncc(-c3c[nH]c(=O)c4c3CCCC4)c2)c1OC` [Example 47, N-(2,3-dimethoxybenzyl)-5-(1-oxo-1,2,5,6,7,8-hexahydroisoquinolin-4-yl)nicotinamide], the IC50 was 3290 nM. With `O=C(NCc1ccncc1)c1cncc(-c2c[nH]c(=O)c3c2CCCC3)c1` [Example 48, 5-(1-oxo-1,2,5,6,7,8-hexahydroisoquinolin-4-yl)-N-pyridin-4-ylmethylnicotinamide], the IC50 was 3070 nM. As to `CCN1CCCC1CNC(=O)c1cncc(-c2c[nH]c(=O)c3c2CCCC3)c1` (centres unmarked) [Example 49, N-(1-ethylpyrrolidin-2-ylmethyl)-5-(1-oxo-1,2,5,6,7,8-hexahydroisoquinolin-4-yl)nicotinamide], the half-maximal inhibitory concentration (IC50) turned out to be 5110 nM. With `Cc1[nH]c(=O)c2c(c1-c1ccc(CNCc3ccccc3)o1)CCCC2` [Example 51, 4-[5-(benzylaminomethyl)furan-2-yl]-3-methyl-5,6,7,8-tetrahydro-2H-isoquinolin-1-one], the IC50 worked out at 590 nM.

With `Cc1[nH]c(=O)c2c(c1-c1ccc(CNCc3cnn(C)c3)o1)CCCC2` [Example 52, 3-methyl-4-(5-{[(1-methyl-1H-pyrazol-4-ylmethyl)amino]methyl}-furan-2-yl)-5,6,7,8-tetrahydro-2H-isoquinolin-1-one], the IC50 turned out to be 330 nM. As for `CCCCNCc1ccc(-c2c(C)[nH]c(=O)c3c2CCCC3)o1` [Example 53, 4-(5-butylaminomethylfuran-2-yl)-3-methyl-5,6,7,8-tetrahydro-2H-isoquinolin-1-one], the half-inhibitory concentration (IC50) was determined as 240 nM. In the case of `Cn1c(CNCc2ccc(-c3c[nH]c(=O)c4c3CCCC4)o2)nc2ccccc21` [Example 55, 4-(5-{[(1-methyl-1H-benzoimidazol-2-ylmethyl)amino]methyl}furan-2-yl)-5,6,7,8-tetrahydro-2H-isoquinolin-1-one] it was 4540 nM; in that of `O=c1[nH]cc(-c2ccc(CN3CCN(c4ncccn4)CC3)o2)c2c1CCCC2` [Example 56, 4-[5-(4-pyrimidin-2-ylpiperazin-1-ylmethyl)furan-2-yl]-5,6,7,8-tetrahydro-2H-isoquinolin-1-one], 1450 nM; in that of `O=c1[nH]cc(-c2ccc(CNCCN3CCCC3)o2)c2c1CCCC2` [Example 57, 4-{5-[(2-pyrrolidin-1-ylethylamino)-methyl]furan-2-yl}-5,6,7,8-tetrahydro-2H-isoquinolin-1-one], 420 nM. In the case of `O=c1[nH]cc(-c2ccc(CNCc3ccncc3)o2)c2c1CCCC2` [Example 58, 4-(5-{[(pyridin-4-ylmethyl)amino]-methyl}furan-2-yl)-5,6,7,8-tetrahydro-2H-isoquinolin-1-one] it was 1270 nM; in that of `O=c1[nH]cc(-c2ccc(CNCc3cccnc3)o2)c2c1CCCC2` [Example 59, 4-(5-{[(pyridin-3-ylmethyl)amino]-methyl}furan-2-yl)-5,6,7,8-tetrahydro-2H-isoquinolin-1-one], 990 nM. Consider `O=c1[nH]cc(-c2ccc(CN3CCCC3)o2)c2c1CCCC2` [Example 61, 4-(5-pyrrolidin-1-ylmethylfuran-2-yl)-5,6,7,8-tetrahydro-2H-isoquinolin-1-one], for which the IC50 was 110 nM. As to `O=c1[nH]cc(-c2ccc(CNCc3ccccn3)o2)c2c1CCCC2` [Example 62, 4-(5-{[(pyridin-2-ylmethyl)amino]-methyl}furan-2-yl)-5,6,7,8-tetrahydro-2H-isoquinolin-1-one], the IC50 came to 1530 nM. For the compound `O=c1[nH]cc(-c2ccc(CN3CCC(O)C3)o2)c2c1CCCC2` (centres unmarked) [Example 63, 4-[5-(3-hydroxypyrrolidin-1-ylmethyl)furan-2-yl]-5,6,7,8-tetrahydro-2H-isoquinolin-1-one], the IC50 was found to be 240 nM. In the case of `O=c1[nH]cc(-c2ccc(CNCN3CCC(N4CCCC4)CC3)o2)c2c1CCCC2` [Example 64, 4-(5-{[(4-pyrrolidin-1-ylpiperidin-1-ylmethyl)amino]methyl}furan-2-yl)-5,6,7,8-tetrahydro-2H-isoquinolin-1-one] it was 340 nM; in that of `CN(C)CCNCc1ccc(-c2c[nH]c(=O)c3c2CCCC3)o1` [Example 65, 4-{5-[(2-dimethylaminoethyl-amino)methyl]furan-2-yl}-5,6,7,8-tetrahydro-2H-isoquinolin-1-one], 460 nM. On to `CN(Cc1ccc(-c2c[nH]c(=O)c3c2CCCC3)o1)Cc1nc2c(s1)CCCC2` [Example 66, 4-(5-{[methyl-(4,5,6,7-tetrahydro-benzothiazol-2-ylmethyl)amino]-methyl}furan-2-yl)-5,6,7,8-tetrahydro-2H-isoquinolin-1-one], for which the IC50 is 1180 nM.

For the compound `O=c1[nH]cc(-c2ccc(CN3CCCC3c3ccccn3)o2)c2c1CCCC2` (centres unmarked) [Example 67, 4-[5-(2-pyridin-2-ylpyrrolidin-1-ylmethyl)furan-2-yl]-5,6,7,8-tetrahydro-2H-isoquinolin-1-one], the IC50 is 720 nM. On to `O=c1[nH]cc(-c2ccc(CNCc3nc4ccccc4[nH]3)o2)c2c1CCCC2` [Example 68, 4-(5-{[(1H-benzimidazol-2-ylmethyl)amino]methyl}furan-2-yl)-5,6,7,8-tetrahydro-2H-isoquinolin-1-one], for which the IC50 came to 340 nM. In the case of `Cn1ccnc1CN(Cc1ccccc1)Cc1ccc(-c2c[nH]c(=O)c3c2CCCC3)o1` [Example 69, 4-(5-{[benzyl(1-methyl-1H-imidazol-2-ylmethyl)amino]-methyl}furan-2-yl)-5,6,7,8-tetrahydro-2H-isoquinolin-1-one] it was 2760 nM; in that of `O=c1[nH]cc(-c2ccc(CNC3Cc4ccccc4C3)o2)c2c1CCCC2` [Example 70, 4-[5-(indan-2-ylaminomethyl)-furan-2-yl]-5,6,7,8-tetrahydro-2H-isoquinolin-1-one], 310 nM; in that of `CN1CCN(CNCc2ccc(-c3c[nH]c(=O)c4c3CCCC4)o2)CC1` [Example 73, 4-(5-{[(4-methylpiperazin-1-ylmethyl)amino]methyl}furan-2-yl)-5,6,7,8-tetrahydro-2H-isoquinolin-1-one], 660 nM.

Regarding `CC(=O)Nc1ccc(CNCc2ccc(-c3c[nH]c(=O)c4c3CCCC4)o2)cc1` [Example 75, N-[4-({[5-(1-oxo-1,2,5,6,7,8-hexahydroisoquinolin-4-yl)furan-2-ylmethyl]amino}methyl)phenyl]-acetamide], the IC50 was 510 nM.

With `O=c1[nH]cc(-c2ccc(CN3CCSC3)o2)c2c1CCCC2` [Example 76, 4-(5-thiazolidin-3-ylmethylfuran-2-yl)-5,6,7,8-tetrahydro-2H-isoquinolin-1-one], the IC50 is 440 nM.

With `Cn1cc(CNCc2ccc(-c3c[nH]c(=O)c4c3CCCC4)o2)cn1` [Example 77, 4-(5-{[(1-methyl-1H-pyrazol-4-ylmethyl)amino]methyl}furan-2-yl)-5,6,7,8-tetrahydro-2H-isoquinolin-1-one], the IC50 was found to be 180 nM. In the case of `O=c1[nH]cc(-c2ccc(CNCc3ccccc3)o2)c2c1CCCC2` [Example 79, 4-[5-(benzylaminomethyl)furan-2-yl]-5,6,7,8-tetrahydro-2H-isoquinolin-1-one] it was 150 nM. Turning to `O=C(NCc1ccc(-c2c[nH]c(=O)c3c2CCCC3)o1)C(F)(F)F` [Example 80, 2,2,2-trifluoro-N-[5-(1-oxo-1,2,5,6,7,8-hexahydroisoquinolin-4-yl)furan-2-ylmethyl]acetamide], the half-inhibitory concentration (IC50) is 540 nM. `CC(C)CC(=O)NCc1ccc(-c2c[nH]c(=O)c3c2CCCC3)o1` [Example 81, 3-methyl-N-[5-(1-oxo-1,2,5,6,7,8-hexahydroisoquinolin-4-yl)furan-2-ylmethyl]butyramide]: the IC50 turned out to be 1070 nM. On to `O=C(NCc1ccc(-c2c[nH]c(=O)c3c2CCCC3)o1)c1ccco1` [Example 82, N-[5-(1-oxo-1,2,5,6,7,8-hexahydroisoquinolin-4-yl)furan-2-ylmethyl]furan-2-carboxamide], for which the IC50 amounted to 460 nM. Consider `COc1ccc(C(=O)NCc2ccc(-c3c[nH]c(=O)c4c3CCCC4)o2)cc1` [Example 83, 4-methoxy-N-[5-(1-oxo-1,2,5,6,7,8-hexahydroisoquinolin-4-yl)furan-2-ylmethyl]benzamide], for which the IC50 came out at 1250 nM. Regarding `O=C(NCc1ccc(-c2c[nH]c(=O)c3c2CCCC3)o1)c1cccnc1` [Example 84, N-[5-(1-oxo-1,2,5,6,7,8-hexahydroisoquinolin-4-yl)furan-2-ylmethyl]nicotinamide], the IC50 is 790 nM. In the case of `O=c1[nH]cc(-c2ccc(CNS(=O)(=O)c3ccc(Oc4ccccn4)cc3)o2)c2c1CCCC2` [Example 85, N-[5-(1-oxo-1,2,5,6,7,8-hexahydroisoquinolin-4-yl)furan-2-ylmethyl]-4-(pyridin-2-yloxy)benzenesulfonamide], the IC50 came to 1630 nM. Regarding `COc1cccc(S(=O)(=O)NCc2ccc(-c3c[nH]c(=O)c4c3CCCC4)o2)c1` [Example 86, 3-methoxy-N-[5-(1-oxo-1,2,5,6,7,8-hexahydroisoquinolin-4-yl)furan-2-ylmethyl]benzenesulfonamide], the IC50 worked out at 2480 nM.

As usually defined, the IC50 is the midpoint of a concentration-inhibition curve.
